pEC50, pIC50: −log10 of the molar value. The source made the active and inactive calls.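 How the source made its calls: active means compounds giving half or more protection of infected cells from virus-caused growth loss, again on retest; inactive means the rest.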
Tested on: CEM cells HIV-1 protection, formazan growth assay
Experiment: NCI AIDS Antiviral Assay
Details: for pIC50: measured here: growth of uninfected CEM cells
How it was run: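 Human CEM cells, uninfected and HIV-1-infected, exposed to five drug concentrations; growth measured by soluble formazan assay and scored as percent protection from infection, with protecting compounds retested.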

SMILES	pEC50	pIC50	outcome
CC(=O)OC12/C(=N/O)CCCCCC1c1ccccc12 (stereo not drawn)	< 3.70	< 3.70	
Cc1ccc(S(=O)(=O)N2CCN(S(=O)(=O)c3ccc(C)cc3)Cc3ccccc3C2)cc1	< 3.70	< 3.70	
COC(=O)C(=O)C(/C(=N/N)C(=O)Nc1ccccc1C(N)=O)c1nc2ccc([N+](=O)[O-])cc2[nH]c1=O (stereo not drawn)	< 3.30	3.69	
CC(C(=O)NCCNC(=O)CCCC(=O)N(C)O)C(=O)NCCNC(=O)CCCC(=O)N(C)O	< 3.70	< 3.70	
O=c1[nH]nc(NNc2ccccc2)c2nnn(C3CCCCC3)c12	< 3.70	4.90	
CCC1CCC23OOC(C)(CCC2C1)O[C@@H]3OC (stereo partly drawn)	< 4.31	< 4.31	
C[C@]12CCC(=O)C(O)=C1CCC2=O			inactive
Cc1ccc(OC2CC(n3cnc4c(=O)[nH]c(Br)nc43)OC2Oc2ccc(C)cc2)cc1 (stereo not drawn)	< 3.70	4.60	
COc1ccccc1-c1cc(=O)c2ccc(OC)c(OC)c2o1	< 3.70	4.48	
COC(=O)c1cc(C(=O)OC)c(CC(=O)C(=O)Nc2ccc(Cl)c(C(F)(F)F)c2)nc1CC(=O)C(=O)Nc1ccc(Cl)c(C(F)(F)F)c1	< 3.70	3.83	
CCC1(OC(=O)CN)C(=O)OCc2c1cc1n(c2=O)Cc2cc3ccccc3nc2-1 (stereo not drawn)	< 5.00	8.16	
Cc1cc(C)n(C(C)(C(=O)Cc2ccccc2)n2nc(C)cc2C)n1	< 3.70	< 3.70	
C=CCCC1(CCP(=O)(c2ccccc2)c2ccccc2)OCCO1	< 3.15	3.81	
CC(C)C(NC(=O)Oc1ccccc1)C(=O)NC1c2c(Br)sc(Br)c2C(=O)C1O (stereo not drawn)	< 3.70	4.93	
O=S1ON=C(C2CCC(C3=NOS(=O)O3)C2)O1 (stereo not drawn)	< 3.70	< 3.70	
Cc1nc(-n2nc(-c3ccccc3)cc2-c2ccccc2)sc1C(=O)CC(=O)C(=O)Nc1ccc(O)cc1	< 3.46	< 3.46	
O=C1/C(=C/c2ccc(O)c(O)c2)CCc2ccccc21	< 3.79	5.62	
O=S(=O)(F)c1cccc(C[P+](c2ccccc2)(c2ccccc2)c2ccccc2)c1	< 3.70	4.29	
C=C(CCC(C)C1CCC2C3=C(C(=O)CC21C)C1(C)CCC(=O)[C@@H](C)C1CC3=O)C(C)C(=O)O (stereo partly drawn)	< 3.70	4.33	
CC1(C)C2CCC1(C)C(NC(=O)COCCOCC(N)=O)C2 (stereo not drawn)	< 4.08	4.38	
N#Cc1c(/C=C/c2ccccc2)c2c([nH]c1=S)CCCCC2	3.47	3.30	

SMILES	pEC50	pIC50	outcome
COc1ccc(/C=N/N=C(N)N)c(C(=O)O)c1OC			inactive
Cc1cccc(N2C(=O)C3c4[nH]c5ccccc5c4C4CCC(C(C)(C)C)CC4C3C2=O)c1C (stereo not drawn)	< 3.70	4.64	
C=CCCCN1CCCC(C)C1=S (stereo not drawn)	< 3.60	< 3.60	
O=C(NC1C2CC3CC(C2)CC1C3)c1cc(/C=C/c2ccccc2)[nH]c(=S)n1 (stereo not drawn)	< 4.46	< 4.46	
O=C1C=C(Nc2ccc(Br)cc2)c2ccccc2C1=O	< 5.36	< 5.36	
Oc1ccc([C@H]2c3c(O)cc(O)cc3C3c4c(cc(O)cc4[C@@H]2[C@H]2c4cc(O)cc5c4C(c4cc(O)cc(O)c4[C@@H]2c2ccc(O)cc2)[C@@H](c2ccc(O)cc2)O5)O[C@@H]3c2ccc(O)cc2)cc1 (stereo partly drawn)	< 4.00	4.86	
CCOC(=O)C1CC(C(=O)c2ccccc2)N2c3ccccc3-c3ccccc3C12 (stereo not drawn)	< 3.70	5.07	
O=[N+]([O-])c1ccc(C2=Cc3ccc4ccccc4[n+]3NC2)cc1	< 4.30	< 4.30	
COC(=O)C1C(O)CC(c2ccccn2)N(Cc2ccccc2)C1c1ccccn1 (stereo not drawn)	< 4.05	4.08	
COc1c(O)cc2c(c1O)C(=O)C1=C(CCCC1)C2=O	< 4.01	4.91	
O=C1C[C@H]2[C@@H](O1)[C@@H](O)CN1C(=O)c3ccccc3[C@H]21	< 3.70	< 3.70	
O=C1CC(=O)NC(=NN2C(=O)CSC2c2ccccc2)N1 (stereo not drawn)	< 3.70	< 3.70	
N#C/C=C\c1cccc(C#N)c1	< 4.33	< 4.33	
Cc1ccc2c(c1)nc1c3ccccc3nc(-c3ccccc3N)n21	< 4.54	< 4.54	
CCN(CC)P(=O)(c1ccc2c(c1)OCCOCCOCCOCCO2)N(CC)CC	< 3.70	< 3.70	
COC(=O)C(CC12CC3CC(CC(C3)C1)C2)NC(=O)C(N)CC(=O)O (stereo not drawn)	< 3.70	< 3.70	
O=C1CSC(c2ccccc2O)N1c1ccc(Oc2ccc(Cl)cc2)c(Cl)c1 (stereo not drawn)	< 4.00	4.62	
CC(O)C1(CNc2cc(Cl)nc(N)n2)CCCCC1 (stereo not drawn)	< 3.70	4.07	
COC(=O)C1=CC[C@@H]2C(C(=O)O)=CO[C@@H](OC3OC(CO)C(O)C(O)C3O)[C@H]12 (stereo partly drawn)	< 3.70	< 3.70	
COC1CC(C)(NC(=O)C(F)(F)F)C2OC(c3ccccc3)OCC2O1 (stereo not drawn)	< 3.70	< 3.70	
Nc1nc(Nc2ccccc2)sc1O	< 3.70	3.71	

SMILES	pEC50	pIC50	outcome
Cc1n(CC(=O)c2ccccc2)nc2sc(N)n[n+]12	< 3.70	3.91	
CC(=O)N1C(=O)CC2(N=C(C)CC2=O)c2ccccc21 (stereo not drawn)	< 3.70	< 3.70	
Nc1nc2c(ncn2C2COC(CO)O2)c(=O)[nH]1 (stereo not drawn)	4.52	< 3.70	
O=C(O)/C=C/c1ccc(OS(=O)(=O)O)cc1	< 3.70	< 3.70	
O=C(NCc1cccnc1)C1COc2cc(-c3cc(=O)c4ccccc4o3)ccc2O1 (stereo not drawn)			inactive
O=c1oc2cccc(O)c2c(O)c1Cc1ccccc1	< 3.70	< 3.70	
COC1OC2COc3ccccc3OC2C(NC#N)C1OC (stereo not drawn)	< 3.84	4.54	
CC(O)(CCCCCl)c1nc2ccccc2s1 (stereo not drawn)	< 3.70	4.22	
CCN(CC)c1c(-c2c(OC(C)C)c(=O)c2=O)c(=O)n2ccsc2c1OC(C)=O	< 3.70	3.85	
COc1c(OP2(=S)OCC(C)(C)CO2)cnn(C2CCCCC2)c1=O	< 3.70	4.61	
N#Cc1cc2ccncc2c2ccccc12	< 4.48	4.62	
COc1ccc(-n2nc3c(N)nnc-3nc2-c2ccccc2)cc1	< 5.39	< 5.39	
CCCCCCCC/C=C\CCCCCCCC(=O)N(C)N(C)C(=O)CCCCCCC/C=C/CCCCCCCC	< 3.70	< 3.70	
COc1cc(-c2cc(=O)c3c(O)c(OC)c(OC)c(OC)c3o2)cc(OC)c1OC	< 4.15	< 4.15	
COc1ccccc1NC(=O)O/N=C(/Cl)C(C)C	< 3.70	5.13	
C[N+]12CCCCC1C(COc1cccc3cccnc13)CCC2 (stereo not drawn)	< 3.70	3.93	
N#CC1(C#N)C(c2ccccc2)NC23CCCCC2C1(C#N)C(=O)N3 (stereo not drawn)	< 3.70	4.09	
Cc1ccnc2nc3[nH]c4ccccc4c3cc12	< 3.90	< 3.90	
COc1ccc2c(c1)OC[C@@H]1c3cc(NC(=O)c4ccccc4)c(OC)cc3N(S(=O)(=O)c3ccccc3)[C@H]21	< 3.70	< 3.70	
Cc1cc2c(c(C=Nc3ccc(N(C)C)cc3)c1)OC1(C=C2)Oc2ccccc2C(=O)N1C (stereo not drawn)	< 4.38	4.88	
CC1(C)C=[N+]([O-])C(C)(C)N1	< 3.70	< 3.70	

— PubChem BioAssay AID179 (DTP/NCI, 2004)
